Values of other authors in US20060240399A1, “Long-term shelf preservation of cells and multicellular specimens by vitrification” (priority 1999, published 2006).

tested on: Drosophila melanogaster embryos; settings: co-solute added to vitrification solution

Structure (SMILES)	effect on ethylene glycol permeation inside embryos
N[C@@H](CCC(=O)O)C(=O)O [glutamic acid]	significantly diminished
NCC(=O)O [glycine]	significantly diminished
OC[C@@H](O)[C@@H](O)[C@H](O)[C@@H](O)CO [sorbitol]	significantly diminished
